# Literature values as cited in patent publication EP4620459A1, “METFORMIN HYDROCHLORIDE ENTERIC-COATED TABLET” (Yayan (Tianjin) Biomedical Technology Center (Limited …, priority 2023, dated 2025).
# Conditions: nausea, abdominal pain, abdominal discomfort, etc.
compound,measurement,value
CN(C)C(=N)N=C(N)N [metformin],incidence of gastrointestinal adverse reactions,20-30%
